ChEMBL document CHEMBL3871303, “In vivo and in silico anti-inflammatory mechanism of action of the semisynthetic (-)-cubebin derivatives (-)-hinokinin and (-)-O-benzylcubebin” (2017)

Columns and labels:
Format in all cases: functional
Rattus norvegicus [1] = assay: Antiinflammatory activity in Wistar rat assessed as inhibition of dextran-induced paw edema administered orally 30 mins prior to dextran treatment measured after 3 hrs
Rattus norvegicus [2] = assay: Antiinflammatory activity in Wistar rat assessed as inhibition of PGE2-induced paw edema at 10 mg/kg, po administered 30 mins prior to PGE2 treatment measured after 3 hrs
Rattus norvegicus [3] = assay: Antiinflammatory activity in Wistar rat assessed as inhibition of PGE2-induced paw edema at 40 mg/kg, po administered 30 mins prior to PGE2 treatment measured after 3 hrs
Rattus norvegicus [4] = assay: Antiinflammatory activity in Wistar rat assessed as inhibition of dextran-induced paw edema at 40 mg/kg, po administered 30 mins prior to dextran treatment measured after 3 hrs

Compound	inhibition (INH) (Rattus norvegicus [1]) [%]	inhibition in vivo at 10 mg/kg (Rattus norvegicus [2]) [%]	inhibition in vivo at 40 mg/kg (Rattus norvegicus [3]) [%]	inhibition in vivo at 40 mg/kg (Rattus norvegicus [4]) [%]
CN1CCC(=C2c3ccccc3C=Cc3ccccc32)CC1 [CYPROHEPTADINE]	56	–	–	–
COc1ccc2c(c1)c(CC(=O)O)c(C)n2C(=O)c1ccc(Cl)cc1 [INDOMETHACIN]	–	54	–	–
c1ccc(COC2OC[C@@H](Cc3ccc4c(c3)OCO4)[C@@H]2Cc2ccc3c(c2)OCO3)cc1 (stereo partly specified)	–	–	66	3.5
O=C1OC[C@@H](Cc2ccc3c(c2)OCO3)[C@@H]1Cc1ccc2c(c1)OCO2	–	–	59.2	18.3
